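Growth conditions: 96-well plates. Treatment: test compound, 48 hours, 5 concentrations. Analysis: linear interpolation between bracketing concentrations; unreached endpoints set to highest concentration. Definition used: TGI = concentration required for complete inhibition of growth.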
Columns and labels:
Assay in all cases: DTP human tumour cell line panel, 48 h
SK-MEL-5 melanoma = test system: SK-MEL-5 melanoma
HCC-2998 colon = test system: HCC-2998 colon
HCT-15 colon = test system: HCT-15 colon
HCT-116 colon = test system: HCT-116 colon
IGROV1 ovarian = test system: IGROV1 ovarian
NCI-H460 lung = test system: NCI-H460 lung
CAKI-1 renal = test system: CAKI-1 renal
A549 NSCLC = test system: A549 NSCLC
SF-295 CNS = test system: SF-295 CNS
EKVX NSCLC = test system: EKVX NSCLC
NCI-H522 lung = test system: NCI-H522 lung
HL-60(TB) leukemia = test system: HL-60(TB) leukemia
HOP-62 NSCLC = test system: HOP-62 NSCLC
U251 CNS = test system: U251 CNS
SN12C renal = test system: SN12C renal
XF 498 CNS = test system: XF 498 CNS
KM20L2 colon = test system: KM20L2 colon
LXFL 529 NSCLC = test system: LXFL 529 NSCLC
M19-MEL melanoma = test system: M19-MEL melanoma
HOP-92 NSCLC = test system: HOP-92 NSCLC

Row | SMILES | TGI (SK-MEL-5 melanoma) | TGI (HCC-2998 colon) | TGI (HCT-15 colon) | TGI (HCT-116 colon) | TGI (IGROV1 ovarian) | TGI (NCI-H460 lung) | TGI (CAKI-1 renal) | TGI (A549 NSCLC) | TGI (SF-295 CNS) | TGI (EKVX NSCLC) | TGI (NCI-H522 lung) | TGI (HL-60(TB) leukemia) | TGI (HOP-62 NSCLC) | TGI (U251 CNS) | TGI (SN12C renal) | TGI (XF 498 CNS) | TGI (KM20L2 colon) | TGI (LXFL 529 NSCLC) | TGI (M19-MEL melanoma) | TGI (HOP-92 NSCLC)
1 | CCC(C(=O)c1ccc(OC)c(OC)c1)N(C(=O)C(F)(F)F)C(C)c1ccccc1 (configuration not stated) | > 100 µM | > 100 µM | > 100 µM | > 100 µM | > 100 µM | > 100 µM | > 100 µM | > 100 µM | > 100 µM | > 100 µM | > 100 µM | > 100 µM | > 100 µM | > 100 µM |  |  |  |  |  | 
2 | O=[N+]([O-])c1ccc(-c2ccc(-c3csc(Nc4ccccn4)n3)o2)cc1 |  | > 100 µM | > 100 µM | > 100 µM | > 100 µM |  | > 100 µM |  | > 100 µM |  | > 100 µM | > 100 µM | 62.4 µM | 28.5 µM | > 100 µM | 49.9 µM | > 100 µM | 76.8 µM | > 100 µM | > 100 µM
3 | O=C1C(Cl)N(c2ccccc2[N+](=O)[O-])C1c1c[nH]c2ccccc12 (configuration not stated) | > 100 µM |  |  | > 100 µM | > 100 µM | > 100 µM |  | > 100 µM | > 100 µM | > 100 µM | > 100 µM | > 100 µM | > 100 µM | > 100 µM | > 100 µM | > 100 µM | > 100 µM | > 100 µM | > 100 µM | > 100 µM
